Data published in patent EP1137645B1, “ALPHA-METHYLBENZYL-CONTAINING THIOUREA INHIBITORS OF HERPES VIRUSES CONTAINING A […] GROUP” (Wyeth, priority 1998, dated 2000).
≈ marks a conversion by molar mass, not a printed value. Read-outs that look alike come from different tables or passages of the source.

Key:
[1] = system: HCMV recombinant mutant virus whose genome contains the prokaryotic beta-glucuronidase gene; test: microbe, parasite or virus in culture; assay type: cell-based, human cytomegalovirus; details: Human betaherpesvirus 5, Fibroblast
Method in brief: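 Antiviral IC50 estimated from reduced reporter activity across compound amounts: lysates prepared 96 h after infection were tested with p-nitrophenyl- or methylumbelliferyl-glucuronide. Cells were human foreskin fibroblasts, infected alongside inhibitor with HCMV (e.g. RV145) expressing viral promoter-driven beta-glucuronidase.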

[2] = system: HSV- I; test: HSV antiviral (ELISA) assay; assay type: cell-based; details: read-out: IC50 (ug/ml) HSV
Method in brief: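 IC50 from fluorescence versus untreated control in a cell ELISA: anti-glycoprotein D antibody, β-galactosidase-conjugated secondary, 4-methyl umbelliferone read at 365/450 nm. Vero cells (2% FBS DMEM) received compound 30 min pre-infection with HSV-1 at MOI 0.006, fixed ~24 h post-infection.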

[3] = system: VZV strain Ellen; test: VZV antiviral (ELISA) assay; assay type: cell-based
Method in brief: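 HFF cells infected with VZV Ellen at multiplicity below 0.1 overnight, then mixed infected/uninfected cells seeded with compound in DMEM/2% FBS and incubated three days at 37°C, 5% CO2.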

[4] = read-out: IC50 ug/ml HCMV, HCMV, human foreskin fibroblasts
[5] = Human alphaherpesvirus 3, VZV strain Ellen, HFF cells, ELISA, read-out: IC50 (ug/ml) VZV
[6] = Human alphaherpesvirus 3, read-out: % inhibition 10 ug/ml VZV, 10 ug/ml, VZV strain Ellen, HFF cells, ELISA
[7] = Human alphaherpesvirus 3, HFF, read-out: % inhibition 10 ug/ml VZV
[8] = Human alphaherpesvirus 3, HFF, read-out: IC50 (ug/ml) VZV

Structure (SMILES) | IC50 [1, 4] [µg/mL] | IC50 ([2]; Vero) [µg/mL] | IC50 ([3]; Human alphaherpesvirus 3, HFF, read-out: IC50 (ug/ml) VZV, VZV strain Ellen, HFF cells, ELISA) [µg/mL] | IC50 ([1]; read-out: IC50 ug/ml HCMV) [µg/mL] | IC50 ([2]; HSV- I, Vero cells, ELISA) [µg/mL] | IC50 [3, 5] [µg/mL] | inhibition at 10 µg/mL [3, 6] [%] | inhibition at 10 µg/mL [3, 7] [%] | IC50 [3, 8] [µg/mL]
CC(C)CN(C)c1cc(NC(=S)Nc2ccc(NC(=O)c3ccccc3F)cc2)cc(C(F)(F)F)c1 [Example 596, 2-Fluoro-N-(4-{3-[3-(isobutyl-methyl-amino)-5-trifluoromethyl-phenyl]-thioureido}-phenyl)-benzamide] | 2 (≈ 3.86 µM) | > 10 | > 10 |  |  |  |  |  | 
CC(NC(=S)Nc1ccc(NC(=O)c2ccccc2F)cc1)c1ccc(C#N)cc1 (stereo not shown) [Example 792, N-(4-{3-[1-(4-Cyano-phenyl)-ethyl]-thioureido}-phenyl)-2-fluoro-benzamide] |  |  |  | 5 (≈ 11.9 µM) | > 10 | > 7.5 |  |  | 
Nc1ccc(C(F)(F)F)cc1NC(=S)Nc1ccc(NC(=O)c2ccccc2F)cc1 [Example 999, N-{4-[3-(2-Amino-5-trifluoromethyl-phenyl)-thioureido]-phenyl}-2-fluoro-benzamide] |  |  |  | 4 (≈ 8.92 µM) | 2.2 (≈ 4.91 µM) | 9.4 (≈ 21 µM) |  |  | 
O=C(Nc1ccc(NC(=S)Nc2ccccc2)cc1)c1ccccc1F [Example 859, 2-Fluoro-N-[4-(3-phenyl-thioureido)-phenyl]-benzamide] |  |  |  | > 10 | > 10 | > 10 | 20 |  | 
Nc1ccc(NC(=S)Nc2ccc(NC(=O)c3ccccc3F)cc2)cc1Cl [Example 404, N-{4-[3-(4-Amino-3-chloro-phenyl)-thioureido]-phenyl}-2-fluoro-benzamide] | 8 (≈ 19.3 µM) |  |  |  | 0.4 (≈ 0.964 µM) |  |  | 15 | > 10
CN(c1ccc(NC(=S)Nc2ccc(NC(=O)c3ccccc3F)cc2)cc1Cl)C1CCCCC1 [Example 238, N-(4-{3-[3-Chloro-4-(cyclohexyl-methyl-amino)-phenyl]-thioureido}-phenyl)-2-fluoro-benzamide] | > 10 |  |  |  | > 10 |  |  | 38 | > 10
O=C(Nc1ccc(NC(=S)Nc2cc(C(F)(F)F)cc(C(F)(F)F)c2)cc1)c1ccccc1F [Example 517, N-{4-[3-(3,5-Bis-trifluoromethyl-phenyl)-thioureido]-phenyl}-2-fluoro-benzamide] |  |  |  | 1.1 (≈ 2.19 µM) | > 10 | > 10 | 5 |  | 
O=C(Nc1ccc(NC(=S)Nc2cccc(OC(F)(F)F)c2)cc1)c1ccccc1F [Example 961, 2-Fluoro-N-{4-[3-(3-trifluoromethoxy-phenyl)-thioureido]-phenyl}-benzamide] |  |  |  | > 10 | > 10 | > 10 | 53 |  | 
Cc1ccc(NC(=S)Nc2ccc(NC(=O)c3ccccc3F)cc2)cc1C(F)(F)F [Example 1003, 2-Fluoro-N-{4-[3-(4-methyl-3-trifluoromethyl-phenyl)-thioureido]-phenyl}-benzamide] |  |  |  | > 10 | > 10 | > 10 |  |  | 
COc1cc(OC)c(NC(=S)Nc2ccc(NC(=O)c3cccc(OC(F)(F)F)c3)cc2)cc1Cl [Example 256, N-{4-[3-(5-Chloro-2,4-dimethoxy-phenyl)-thioureido]-phenyl}-3-trifluoro-methoxy-benzamide] | 9 (≈ 17.1 µM) |  |  |  | 2 (≈ 3.8 µM) |  |  | 15 | > 10
CCCCOc1cccc(C(=O)Nc2ccc(NC(=S)Nc3cc(Cl)c(OC)cc3OC)cc2)c1 [Example 219, 3-Butoxy-N-{4-[3-(5-chloro-2,4-dimethoxy-phenyl)-thioureido]-phenyl}-benzamide] | > 10 |  |  |  | 2.5 (≈ 4.86 µM) |  |  | 30 | > 10
COc1cc(C)c(Cl)cc1NC(=S)Nc1ccc(NC(=O)c2c(F)cccc2F)cc1 [Example 333, N-{4-[3-(5-Chloro-2-methoxy-4-methyl-phenyl)-thioureido]-phenyl}-2,6-difluoro-benzamide] | 2.5 (≈ 5.41 µM) |  |  |  | 0.04 (≈ 0.0866 µM) |  |  | 92 | 4.5 (≈ 9.74 µM)
COc1cc(OC)c(NC(=S)Nc2ccc(NC(=O)c3ccccc3C(F)(F)F)cc2)cc1Cl [Example 138, N-{4-[3-(5-Chloro-2,4-dimethoxy-phenyl)-thioureido]-phenyl}-2-trifluoro-methyl-benzamide] | 8 (≈ 15.7 µM) |  |  |  | 1 (≈ 1.96 µM) |  |  | 57 | > 10
COc1cc(OC)c(NC(=S)Nc2ccc(NC(=O)c3ccccc3OC(C)=O)cc2)cc1Cl [Example 115, Acetic acid 2-{4-[3-(5-chloro-2,4-dimethoxy-phenyl)-thioureido]-phenyl-carbamoyl}-phenyl ester] | 8 (≈ 16 µM) |  |  |  | 4 (≈ 8 µM) |  |  | 98 | 4 (≈ 8 µM)
